Experimental findings from patent US8927500B2, “Peptidomimetic macrocycles” (Aileron Therapeutics, Inc., priority 2012, dated 2015) are described below.

Read-outs that look alike come from different tables or passages of the source. Where a SMILES comes first, the peptide text is derived from it. Bridges are numbered along the chain shown (N, C = ends). [ ]: non-standard residue; d: D form. Phe(4-B(OH)2) = N[C@@H](Cc1ccc(B(O)O)cc1)C(=O)O; R8 = C=CCCCCCC[C@@](C)(N)C(=O)O; S5 = C=CCCC[C@](C)(N)C(=O)O; Aib = CC(C)(N)C(=O)O; Sar = CNCC(=O)O

The target of one test is T1, MDMX (Homo sapiens, UniProt O15151).
T1 sequence (O15151 1-125): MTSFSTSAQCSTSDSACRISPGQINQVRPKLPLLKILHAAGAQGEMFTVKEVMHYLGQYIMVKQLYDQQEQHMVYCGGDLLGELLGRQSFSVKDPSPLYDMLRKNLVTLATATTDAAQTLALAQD
Description: Competitive fluorescence polarization assay for MDMX. In kind it is binding. Conditions: competitive FP assay. Background: Polarisation of emitted light reports the rotation of a fluorescent probe.

The target of another test is MDM2 (Homo sapiens, UniProt Q00987). Put plainly: Competitive fluorescence polarization assay for MDM2. It counts as binding. Particulars: competitive FP assay, MDM2.
Sequence of MDM2 (Q00987 1-125): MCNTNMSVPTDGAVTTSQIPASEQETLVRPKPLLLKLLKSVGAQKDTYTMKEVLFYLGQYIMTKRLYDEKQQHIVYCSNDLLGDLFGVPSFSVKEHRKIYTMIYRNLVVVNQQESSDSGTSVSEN

In the case of `CC(=O)N[C@@H](CC(C)C)C(=O)N[C@H](C(=O)N[C@@H](Cc1ccccc1)C(=O)N[C@]1(C)CCCCCCC=CCCC[C@@](C)(C(=O)N[C@@H](C)C(=O)N[C@@H](C)C(=O)N[C@@H](C)C(=O)N[C@@H](C)C(=O)N[C@@H](C)C(=O)N[C@H](C)C(N)=O)NC(=O)[C@H](CC(C)C)NC(=O)[C@H](CCC(N)=O)NC(=O)[C@H](C)NC(=O)[C@H](Cc2c[nH]c3ccccc23)NC(=O)[C@H](Cc2ccc(B(O)O)cc2)NC(=O)[C@H](CCC(=O)O)NC1=O)[C@@H](C)O` [compound 556] (Ac-LTF[R8]E[Phe(4-B(OH)2)]WAQL[S5]AAAAA[dA]-NH2; staple 4-11), the Ki (as a rule, a measure of affinity in units of concentration, obtained from inhibition or displacement) at MDMX (Ki (MDMX)) is 10 to 100 nM; on MDM2 (Ki (MDM2)), less than 10 nM.
In the same order, the values of `CC(=O)N[C@@H](C)C(=O)N[C@@H](C)C(=O)N[C@@H](C)C(=O)N[C@@H](CC(C)C)C(=O)N[C@H](C(=O)N[C@@H](Cc1ccccc1)C(=O)N[C@]1(C)CCCCCC/C=C/CCC[C@@](C)(C(=O)N[C@@H](C)C(=O)N[C@@H](C)C(=O)N[C@@H](C)C(=O)N[C@@H](C)C(=O)N[C@@H](C)C(=O)N[C@H](C)C(N)=O)NC(=O)[C@H](CC(C)C)NC(=O)[C@H](CCC(N)=O)NC(=O)[C@H](C)NC(=O)[C@H](Cc2c[nH]c3ccccc23)NC(=O)[C@H](Cc2ccc(O)cc2)NC(=O)[C@H](CCC(=O)O)NC1=O)[C@@H](C)O` [compound 557] (Ac-AAALTF[R8]EYWAQL[S5]AAAAA[dA]-NH2; staple (E) 7-14) are 10 to 100 nM and 10 to 100 nM.
In the same order, the values of `CC(=O)N[C@@H](CCCNC(=N)N)C(=O)N[C@H](C(=O)N[C@@H](Cc1ccccc1)C(=O)N[C@]1(C)CCCCCCC=CCCC[C@@](C)(C(=O)N[C@@H](C)C(=O)N[C@@H](C)C(=O)N[C@@H](C)C(=O)N[C@@H](C)C(=O)N[C@@H](C)C(=O)N[C@H](C)C(N)=O)NC(=O)[C@H](CC(C)C)NC(=O)[C@H](CCC(N)=O)NC(=O)[C@H](C)NC(=O)[C@H](Cc2c[nH]c3ccccc23)NC(=O)[C@H](Cc2ccc(O)cc2)NC(=O)[C@H](CCC(=O)O)NC1=O)[C@@H](C)O` [compound 559] (Ac-RTF[R8]EYWAQL[S5]AAAAA[dA]-NH2; staple 4-11) are 10 to 100 nM and 10 to 100 nM.
Turning to `CC(=O)N[C@@H](CC(C)C)C(=O)N[C@H](C(=O)N[C@@H](C)C(=O)N[C@]1(C)CCCCCCC=CCCC[C@@](C)(C(=O)N[C@@H](C)C(=O)N[C@@H](C)C(=O)N[C@@H](C)C(=O)N[C@@H](C)C(=O)N[C@@H](C)C(=O)N[C@H](C)C(N)=O)NC(=O)[C@H](CC(C)C)NC(=O)[C@H](CCC(N)=O)NC(=O)[C@H](C)NC(=O)[C@H](Cc2c[nH]c3ccccc23)NC(=O)[C@H](Cc2ccc(O)cc2)NC(=O)[C@H](CCC(=O)O)NC1=O)[C@@H](C)O` [compound 560] (Ac-LTA[R8]EYWAQL[S5]AAAAA[dA]-NH2; staple 4-11), the Ki at MDMX (Ki (MDMX)) and at MDM2 (Ki (MDM2)) was more than 1000 nM each time.
`CC(=O)N[C@@H](CC(C)C)C(=O)N[C@H](C(=O)N[C@@H](Cc1ccccc1)C(=O)N[C@]1(C)CCCCCCC=CCCC[C@@](C)(C(=O)N[C@@H](C)C(=O)N[C@@H](C)C(=O)N[C@@H](C)C(=O)N[C@@H](C)C(=O)N[C@@H](C)C(=O)N[C@H](C)C(N)=O)NC(=O)[C@H](CC(C)C)NC(=O)[C@H](CCC(N)=O)NC(=O)C(C)(C)NC(=O)[C@H](Cc2c[nH]c3ccccc23)NC(=O)[C@H](Cc2ccc(O)cc2)NC(=O)[C@H](CCC(=O)O)NC1=O)[C@@H](C)O` [compound 561] (Ac-LTF[R8]EYW[Aib]QL[S5]AAAAA[dA]-NH2; staple 4-11): the Ki at MDMX (Ki (MDMX)) is 10 to 100 nM; on MDM2 (Ki (MDM2)), less than 10 nM.
On to `CC(=O)N[C@@H](CC(C)C)C(=O)N[C@H](C(=O)N[C@@H](Cc1ccccc1)C(=O)N[C@]1(C)CCCCCC/C=C/CCC[C@@](C)(C(=O)N[C@@H](C)C(=O)NC(C)(C)C(=O)N[C@@H](C)C(=O)N[C@@H](C)C(=O)N[C@@H](C)C(=O)N[C@H](C)C(N)=O)NC(=O)[C@H](CC(C)C)NC(=O)[C@H](CCC(N)=O)NC(=O)[C@H](C)NC(=O)[C@H](Cc2c[nH]c3ccccc23)NC(=O)[C@H](Cc2ccc(O)cc2)NC(=O)[C@H](CCC(=O)O)NC1=O)[C@@H](C)O` [compound 562] (Ac-LTF[R8]EYWAQL[S5]A[Aib]AAA[dA]-NH2; staple (E) 4-11), for which the Ki at MDMX (read-out: Ki (MDMX)) and on MDM2 (read-out: Ki (MDM2)) was 10 to 100 nM throughout.
`CC(=O)N[C@@H](CC(C)C)C(=O)N[C@H](C(=O)N[C@@H](Cc1ccccc1)C(=O)N[C@]1(C)CCCCCCC=CCCC[C@@](C)(C(=O)N[C@@H](C)C(=O)N[C@@H](C)C(=O)NC(C)(C)C(=O)N[C@@H](C)C(=O)N[C@@H](C)C(=O)N[C@H](C)C(N)=O)NC(=O)[C@H](CC(C)C)NC(=O)[C@H](CCC(N)=O)NC(=O)[C@H](C)NC(=O)[C@H](Cc2c[nH]c3ccccc23)NC(=O)[C@H](Cc2ccc(O)cc2)NC(=O)[C@H](CCC(=O)O)NC1=O)[C@@H](C)O` [compound 563] (Ac-LTF[R8]EYWAQL[S5]AA[Aib]AA[dA]-NH2; staple 4-11): the Ki on MDMX (read-out: Ki (MDMX)) and at MDM2 (read-out: Ki (MDM2)) was 10 to 100 nM throughout.
On to `CC(=O)N[C@@H](CC(C)C)C(=O)N[C@H](C(=O)N[C@@H](Cc1ccccc1)C(=O)N[C@]1(C)CCCCCCC=CCCC[C@@](C)(C(=O)N[C@@H](C)C(=O)N(C)CC(=O)N[C@@H](C)C(=O)N[C@@H](C)C(=O)N[C@@H](C)C(=O)N[C@H](C)C(N)=O)NC(=O)[C@H](CC(C)C)NC(=O)[C@H](CCC(N)=O)NC(=O)[C@H](C)NC(=O)[C@H](Cc2c[nH]c3ccccc23)NC(=O)[C@H](Cc2ccc(O)cc2)NC(=O)[C@H](CCC(=O)O)NC1=O)[C@@H](C)O` [compound 574] (Ac-LTF[R8]EYWAQL[S5]A[Sar]AAA[dA]-NH2; staple 4-11), for which the Ki on MDMX (read-out: Ki (MDMX)) is 10 to 100 nM; on MDM2 (read-out: Ki (MDM2)), less than 10 nM.
In the case of `CC(=O)N[C@@H](CC(C)C)C(=O)N[C@H](C(=O)N[C@@H](Cc1ccccc1)C(=O)N[C@]1(C)CCCCCCC=CCCC[C@@](C)(C(=O)N[C@@H](C)C(=O)N[C@@H](C)C(=O)N(C)CC(=O)N[C@@H](C)C(=O)N[C@@H](C)C(=O)N[C@H](C)C(N)=O)NC(=O)[C@H](CC(C)C)NC(=O)[C@H](CCC(N)=O)NC(=O)[C@H](C)NC(=O)[C@H](Cc2c[nH]c3ccccc23)NC(=O)[C@H](Cc2ccc(O)cc2)NC(=O)[C@H](CCC(=O)O)NC1=O)[C@@H](C)O` [compound 575] (Ac-LTF[R8]EYWAQL[S5]AA[Sar]AA[dA]-NH2; staple 4-11), the Ki was 10 to 100 nM on MDMX (read-out: Ki (MDMX)) and less than 10 nM at MDM2 (read-out: Ki (MDM2)).
With `CC(=O)N[C@@H](CC(C)C)C(=O)N[C@H](C(=O)N[C@@H](Cc1ccccc1)C(=O)N[C@]1(C)CCCCCCC=CCCC[C@@](C)(C(=O)N[C@@H](C)C(=O)N[C@@H](C)C(=O)N[C@@H](C)C(=O)N(C)CC(=O)N[C@@H](C)C(=O)N[C@H](C)C(N)=O)NC(=O)[C@H](CC(C)C)NC(=O)[C@H](CCC(N)=O)NC(=O)[C@H](C)NC(=O)[C@H](Cc2c[nH]c3ccccc23)NC(=O)[C@H](Cc2ccc(O)cc2)NC(=O)[C@H](CCC(=O)O)NC1=O)[C@@H](C)O` [compound 576] (Ac-LTF[R8]EYWAQL[S5]AAA[Sar]A[dA]-NH2; staple 4-11), the Ki at MDMX (read-out: Ki (MDMX)) is 10 to 100 nM; at MDM2 (read-out: Ki (MDM2)), less than 10 nM.
For `CC(=O)N[C@@H](CC(C)C)C(=O)N[C@H](C(=O)N[C@@H](Cc1ccccc1)C(=O)N[C@]1(C)CCCCCCC=CCCC[C@@](C)(C(=O)N[C@@H](C)C(=O)N[C@@H](C)C(=O)N[C@@H](C)C(=O)N[C@@H](C)C(=O)N(C)CC(=O)N[C@H](C)C(N)=O)NC(=O)[C@H](CC(C)C)NC(=O)[C@H](CCC(N)=O)NC(=O)[C@H](C)NC(=O)[C@H](Cc2c[nH]c3ccccc23)NC(=O)[C@H](Cc2ccc(O)cc2)NC(=O)[C@H](CCC(=O)O)NC1=O)[C@@H](C)O` [compound 577] (Ac-LTF[R8]EYWAQL[S5]AAAA[Sar][dA]-NH2; staple 4-11) the same measures were 10 to 100 nM and less than 10 nM.
For `CC(=O)N[C@@H](CC(C)C)C(=O)N[C@H](C(=O)N[C@@H](Cc1ccccc1)C(=O)N[C@]1(C)CCCCCCC=CCCC[C@@](C)(C(=O)N[C@@H](C)C(=O)N[C@@H](C)C(=O)N[C@@H](C)C(=O)N[C@@H](C)C(=O)N[C@H](C)C(N)=O)NC(=O)[C@H](CC(C)C)NC(=O)[C@H](CCC(N)=O)NC(=O)[C@H](C)NC(=O)[C@H](Cc2c[nH]c3ccccc23)NC(=O)[C@H](Cc2ccc(O)cc2)NC(=O)[C@H](CCC(=O)O)NC1=O)[C@@H](C)O` [compound 585] (Ac-LTF[R8]EYWAQL[S5]AAAA[dA]-NH2; staple 4-11) the same measures were 10 to 100 nM and 10 to 100 nM.
For `CC(=O)N[C@@H](CC(C)C)C(=O)N[C@H](C(=O)N[C@@H](Cc1ccccc1)C(=O)N[C@]1(C)CCCCCCC=CCCC[C@@](C)(C(=O)N[C@@H](C)C(=O)N[C@@H](C)C(=O)N[C@@H](C)C(=O)N[C@H](C)C(N)=O)NC(=O)[C@H](CC(C)C)NC(=O)[C@H](CCC(N)=O)NC(=O)[C@H](C)NC(=O)[C@H](Cc2c[nH]c3ccccc23)NC(=O)[C@H](Cc2ccc(O)cc2)NC(=O)[C@H](CCC(=O)O)NC1=O)[C@@H](C)O` [compound 586] (Ac-LTF[R8]EYWAQL[S5]AAA[dA]-NH2; staple 4-11) the same measures were 10 to 100 nM and less than 10 nM.
With `CC(=O)N[C@@H](CC(C)C)C(=O)N[C@H](C(=O)N[C@@H](Cc1ccccc1)C(=O)N[C@]1(C)CCCCCCC=CCCC[C@@](C)(C(=O)N[C@@H](C)C(=O)N[C@@H](C)C(=O)N[C@H](C)C(N)=O)NC(=O)[C@H](CC(C)C)NC(=O)[C@H](CCC(N)=O)NC(=O)[C@H](C)NC(=O)[C@H](Cc2c[nH]c3ccccc23)NC(=O)[C@H](Cc2ccc(O)cc2)NC(=O)[C@H](CCC(=O)O)NC1=O)[C@@H](C)O` [compound 587] (Ac-LTF[R8]EYWAQL[S5]AA[dA]-NH2; staple 4-11), the Ki on MDMX (read-out: Ki (MDMX)) and on MDM2 (read-out: Ki (MDM2)) was less than 10 nM in each case.
